Converted amounts (≈) assume the structure as drawn. The source made the active and inactive calls. No cut-off for these calls is given here.
Legend:
[1] = system: Mycobacterium tuberculosis; test: Antimycobacterial activity against Mycobacterium tuberculosis H37Rv expressing pCHERRY3 after 4 days by plate format assay; format: functional; conditions: 96 h
[2] = system: Mycobacterium tuberculosis; test: Antimycobacterial activity against drug-sensitive Mycobacterium tuberculosis clinical isolate 1 after 14 days; format: functional; conditions: clinical isolate 1, 336 h
[3] = system: Mycobacterium tuberculosis; test: Antimycobacterial activity against isoniazid, rifampin, ethambutol, kanamycin and p-aminosalicylic acid-resistant Mycobacterium tuberculosis after 14 days; format: functional; conditions: 336 h
[4] = system: Mycobacterium tuberculosis; test: Antimycobacterial activity against isoniazid, rifampin, ethambutol, pyrazinamide, streptomycin, kanamycin and p-aminosalicylic acid-resistant Mycobacterium tuberculosis after 14 days; format: functional; conditions: 336 h
[5] = Drug metabolism in rat liver microsomes assessed as monohydroxylations on imidazopyridine at 2 uM after 30 mins by LC/MS/MS analysis; format: ADME, Microsome; conditions: 0.5 h
[6] = Drug metabolism in human liver microsomes assessed as monohydroxylations on imidazopyridine at 2 uM after 30 mins by LC/MS/MS analysis; format: ADME, Microsome; conditions: 0.5 h
[7] = Drug metabolism in mouse liver microsomes assessed as monohydroxylations on imidazopyridine at 2 uM after 30 mins by LC/MS/MS analysis; format: ADME, Microsome; conditions: 0.5 h
[8] = molecular target: Cytochrome P450 2C9 (Homo sapiens, UniProt P11712); test: Time dependent inhibition of CYP3A4 in human liver microsomes using midazolam as substrate at 10 uM after 10 mins; format: ADME, Microsome
[9] = system: Mycobacterium tuberculosis; test: Antimycobacterial activity against Mycobacterium tuberculosis H37Rv expressing pCHERRY3 after 4 days by plate format assay in presence of bovine serum albumin; format: functional, organism-based
[10] = system: Mycobacterium tuberculosis; test: Antimycobacterial activity against drug-sensitive Mycobacterium tuberculosis clinical isolate 2 after 14 days; format: functional; conditions: clinical isolate 2, 336 h
[11] = Tmax in Balb/c mouse at 3 mg/kg, po; format: ADME, organism-based; parameters: dose 3 mg/kg, route oral; conditions: in vivo
[12] = Half life in Balb/c mouse at 10 mg/kg, po; format: ADME, organism-based; parameters: dose 10 mg/kg, route oral; conditions: in vivo
[13] = Tmax in Balb/c mouse at 10 mg/kg, po; format: ADME, organism-based; parameters: dose 10 mg/kg, route oral; conditions: in vivo
[14] = molecular target: CYP2C9 (Homo sapiens, UniProt P11712); test: Inhibition of CYP2C9 in human liver microsomes using diclofenac as substrate at 10 uM after 10 mins; format: ADME, Microsome; conditions: probe diclofenac
[15] = Half life in Balb/c mouse at 3 mg/kg, po; format: ADME, organism-based; parameters: dose 3 mg/kg, route oral; conditions: in vivo
[16] = Half life in Balb/c mouse at 100 mg/kg, po; format: ADME, organism-based; parameters: dose 100 mg/kg, route oral; conditions: in vivo
[17] = molecular target: CYP2D6 (Homo sapiens, UniProt P10635); test: Inhibition of CYP2D6 in human liver microsomes using bufuralol as substrate at 10 uM after 10 mins; format: ADME, Microsome; conditions: probe bufuralol
[18] = Drug metabolism in dog liver microsomes at 2 uM after 30 mins by LC-MS analysis; format: ADME, Canis lupus familiaris, Microsome; conditions: read-out: Drug metabolism
[19] = Drug metabolism in human liver microsomes at 2 uM after 30 mins by LC-MS analysis; format: ADME, Microsome; conditions: read-out: Drug metabolism
[20] = molecular target: CYP3A4 (Homo sapiens, UniProt P11712); test: Inhibition of CYP3A4 in human liver microsomes using midazolam as substrate at 10 uM after 10 mins; format: ADME, Microsome; conditions: probe midazolam
[21] = Drug metabolism in mouse liver microsomes at 2 uM after 30 mins by LC-MS analysis; format: ADME, Microsome; conditions: read-out: Drug metabolism
[22] = Drug metabolism in rat liver microsomes at 2 uM after 30 mins by LC-MS analysis; format: ADME, Microsome; conditions: read-out: Drug metabolism
[23] = Clearance in Balb/c mouse at 1 mg/kg, iv; format: ADME, organism-based; parameters: dose 1 mg/kg, route intravenous; conditions: in vivo
[24] = Tmax in Balb/c mouse at 100 mg/kg, po; format: ADME, organism-based; parameters: dose 100 mg/kg, route oral; conditions: in vivo

Chain of Cytochrome P450 2C9 (P11712 whole entry): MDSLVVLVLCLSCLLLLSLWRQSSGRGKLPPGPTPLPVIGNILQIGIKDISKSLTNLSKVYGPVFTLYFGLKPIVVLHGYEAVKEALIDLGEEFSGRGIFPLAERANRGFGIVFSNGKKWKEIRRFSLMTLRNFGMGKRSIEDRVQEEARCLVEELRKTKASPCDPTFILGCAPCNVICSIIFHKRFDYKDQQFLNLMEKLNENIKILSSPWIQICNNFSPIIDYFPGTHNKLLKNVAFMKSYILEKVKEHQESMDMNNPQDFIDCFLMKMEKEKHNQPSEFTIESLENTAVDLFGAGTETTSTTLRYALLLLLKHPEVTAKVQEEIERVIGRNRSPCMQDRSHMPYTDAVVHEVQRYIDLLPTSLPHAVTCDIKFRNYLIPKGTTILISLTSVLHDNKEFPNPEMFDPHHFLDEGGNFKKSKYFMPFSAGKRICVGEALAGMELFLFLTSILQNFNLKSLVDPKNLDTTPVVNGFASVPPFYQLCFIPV
Chain of CYP2D6 (P10635 whole entry): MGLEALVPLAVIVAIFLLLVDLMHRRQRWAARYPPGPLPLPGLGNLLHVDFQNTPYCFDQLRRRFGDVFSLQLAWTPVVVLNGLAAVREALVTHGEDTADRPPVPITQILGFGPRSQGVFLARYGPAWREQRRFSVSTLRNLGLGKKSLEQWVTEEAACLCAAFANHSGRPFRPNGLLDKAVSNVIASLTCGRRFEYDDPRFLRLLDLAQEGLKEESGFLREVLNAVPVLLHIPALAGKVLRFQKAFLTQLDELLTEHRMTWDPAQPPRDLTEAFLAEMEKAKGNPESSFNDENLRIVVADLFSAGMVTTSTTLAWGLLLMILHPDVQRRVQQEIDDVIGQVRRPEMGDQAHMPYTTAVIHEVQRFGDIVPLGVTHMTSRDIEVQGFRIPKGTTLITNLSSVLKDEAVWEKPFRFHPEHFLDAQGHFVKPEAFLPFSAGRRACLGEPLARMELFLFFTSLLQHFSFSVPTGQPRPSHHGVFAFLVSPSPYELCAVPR
Chain of CYP3A4 (P11712 whole entry): as the sequence (P11712 whole entry) above
Chain of CYP2C9 (P11712 whole entry): as above

With `NNC(=O)c1ccncc1` [ISONIAZID] the MIC99 [1] was 0.3 µM (≈ 0.0411 µg/mL).

Molecule `C[C@H]1COC2(CCN(c3nc(=O)c4cc(C(F)(F)F)cc([N+](=O)[O-])c4s3)CC2)O1` [BTZ-043] has an MIC99 [1] of 0.003 µM (≈ 0.00129 µg/mL).

For `Cc1ccn2c(C(=O)NCc3ccc(Oc4ccc(F)cc4)cc3)c(C)nc2c1`, the MIC99 [2] was < 0.03 µM, the MIC99 [3] was < 0.03 µM and the MIC90 [4] was 0.03 µM (≈ 0.0117 µg/mL). The Drug metabolism [5] was “Active”, the Drug metabolism [6] was “Active” and the Drug metabolism [7] was “Active”. For the same molecule, the “inhibition (INH)” value [8] was “Active”, the Activity [9] was “Active” and the MIC99 [1] was 0.004 µM (≈ 0.00156 µg/mL). The MIC99 [10] was < 0.03 µM, the Tmax [11] was 0.5 h and the half-life [12] was 13.2 h. It also gave a Tmax [13] of 0.5 h.

`Cc1ccn2c(C(=O)NCc3ncc(C(F)(F)F)cc3Cl)c(C)nc2c1` showed an MIC99 [3] of 0.4 µM (≈ 0.153 µg/mL), an inhibition at 10 min, 10 µM [14] of 11.5% and an MIC99 [4] of 6.5 µM (≈ 2.49 µg/mL). The Drug metabolism [5] was “Active”, the Drug metabolism [6] was “Active” and the half-life [15] was 5 h. For the same molecule, the Drug metabolism [7] was “Active”, the half-life [16] was 1.93 h and the inhibition at 10 min, 10 µM [17] was 2.8%. For the same molecule, the “inhibition (INH)” value [8] was “Active”, the metabolised at 0.5 h, 2 µM [18] was 41.2% and the metabolised at 0.5 h, 2 µM [19] was 0%. The Activity [9] was “Active”, the MIC99 [1] was 0.7 µM (≈ 0.268 µg/mL) and the Tmax [11] was 0.25 h. It also gave an inhibition at 10 min, 10 µM [20] of 0%, a metabolised at 0.5 h, 2 µM [21] of 79.9% and a metabolised at 0.5 h, 2 µM [22] of 19.3%. For the same molecule, the clearance [23] was 43.1 mL/min/kg and the Tmax [24] was 2 h.

For `Cc1ccn2c(C(=O)NCc3ccc(S(N)(=O)=O)cc3)c(C)nc2c1`, the MIC99 [1] was > 20 µM.

`Cc1ccc2nc(C)c(C(=O)NCc3ccc(S(C)(=O)=O)cc3)n2c1` gave an MIC99 [1] of 0.4 µM (≈ 0.143 µg/mL).

For `Cc1ccc2nc(C)c(C(=O)NCc3ccccc3)n2c1`, the MIC99 [2] was 0.04 µM (≈ 0.0112 µg/mL), the MIC99 [3] was < 0.04 µM and the MIC99 [4] was < 0.04 µM. The MIC99 [1] was 0.006 µM (≈ 0.00168 µg/mL) and the MIC99 [10] was < 0.04 µM.

Molecule `Cc1nc2c(C)cccn2c1C(=O)NCc1ccc(Oc2ccc(F)cc2)cc1` has an MIC99 [1] of 0.1 µM (≈ 0.0389 µg/mL).

With `Cc1ccc2nc(C(F)(F)F)c(C(=O)NCc3ccc(S(C)(=O)=O)cc3)n2c1` the MIC99 [1] was 0.9 µM (≈ 0.37 µg/mL).

Work on `Cc1ccc2nc(C)c(C(=O)NCc3ccc(Oc4ccc(F)cc4)cc3)n2c1` yielded an MIC99 [1] of 0.005 µM (≈ 0.00195 µg/mL).

For `Cc1ccn2c(C(=O)NCc3ccccc3)c(C)nc2c1`, the Activity [9] was “Active”, the MIC99 [1] was 0.2 µM (≈ 0.0559 µg/mL) and the metabolised at 0.5 h, 2 µM [22] was 71%.

Work on `O=[N+]([O-])c1cn2c(n1)OC[C@@H](OCc1ccc(OC(F)(F)F)cc1)C2` [PRETOMANID] yielded an MIC99 [2] of 0.5 µM (≈ 0.18 µg/mL), an MIC99 [3] of 0.5 µM (≈ 0.18 µg/mL) and an MIC99 [4] of 0.5 µM (≈ 0.18 µg/mL). The MIC99 [1] was 0.6 µM (≈ 0.216 µg/mL) and the MIC99 [10] was > 13.9 µM.

In the case of `COc1cccc(CNC(=O)c2c(C)nc3cc(Cl)ccn23)c1`, the MIC99 [1] is reported as 1.1 µM (≈ 0.363 µg/mL).

In the case of `COc1cccc(NC(=O)c2c(C)nc3cc(C)ccn23)c1`, the MIC99 [1] is reported as > 20 µM.

`CO[C@H]1/C=C/O[C@@]2(C)Oc3c(C)c(O)c4c(O)c(c(/C=N/N5CCN(C)CC5)c(O)c4c3C2=O)NC(=O)/C(C)=C\C=C\[C@H](C)[C@H](O)[C@@H](C)[C@@H](O)[C@@H](C)[C@H](OC(C)=O)[C@@H]1C` [RIFAMPIN] showed an MIC99 [1] of 0.003 µM (≈ 0.00247 µg/mL).
